Source: patent US20240285661A1, “Inhibitor of Invasion of Virus to Cell” (TOYO SUGAR REFINING CO., LTD., priority 2021, published 2024)

Experiments:
pseudo SARS-CoV-2 [1] = test: microbe, parasite or virus in culture; type: cell-based; conditions: Severe acute respiratory syndrome coronavirus 2, Caco-2 cells, read-out: Inhibition rate of invasion to cell (%)
pseudo SARS-CoV-2 [2] = test: microbe, parasite or virus in culture; type: cell-based; conditions: Severe acute respiratory syndrome coronavirus 2, A549, concentration 20 nM, read-out: Inhibition rate of invasion to cell (%)

How did the inhibition at 0.00016 µM (pseudo SARS-CoV-2 [1]; concentration 0.16 nM) turn out when `N=C(N)c1ccc2cc(OC(=O)c3ccc(N=C(N)N)cc3)ccc2c1` [Nafamostat] was run?
Its inhibition at 0.00016 µM is 40.4%.

What about the inhibition at 0.0008 µM (pseudo SARS-CoV-2 [1]; concentration 0.80 nM) of the same compound?
Its inhibition at 0.0008 µM is 48.9%.

And the inhibition at 0.1 µM (pseudo SARS-CoV-2 [1]; concentration 100 nM)?
Its inhibition at 0.1 µM is 76.1%.

And the inhibition at 0.02 µM (pseudo SARS-CoV-2 [2])?
Its inhibition at 0.02 µM is 49%.
